Measurements as given in patent US20170050957A1, “4-AMINO-6-(HETEROCYCLIC)PICOLINATES AND 6-AMINO-2-(HETEROCYCLIC)PYRIMIDINE-4-CARBOXYLATES AND THEIR USE AS HERBICIDES” (Dow AgroSciences LLC, priority 2013, published 2017).
Like-named read-outs stand apart in the source and are kept apart here.

Experiments:
Assay type in all cases: in vivo
[1] = system: barnyardgrass (Echinochloa crs-galli); experiment: Pre-emergent Test I herbicidal activity; settings: 4 Kg ai/ha
Procedure: (§1) Pre-emergent Test I Seeds of test species were planted into round plastic pots (5-inch diameter) containing sandy loam soil. After planting, all pots were sub-irrigated 16 h prior to compound application. Compounds were dissolved in a 97:3 v/v (volume/volume) mixture of acetone and dimethyl sulfoxide (DMSO) and diluted to the appropriate concentration in a final application solution containing water, acetone, isopropanol, DMSO and Agri-dex (crop oil concentrate) in a 59:23:15:1.0:1.5 v/v ratio and 0.02% w/v (weight/volume) of Triton X-155 to obtain the spray solution containing the highest application rate. The high application rate was serial diluted with the above application solution to provide delivery of the compound at rates 1/2×, 1/4× and 1/8× of the highest rate (equivalent to 4.0, 2.0, 1.0, and 0.5 kg/ha, respectively). Formulated compound (2.7 mL) was applied pipetted evenly over the soil surface followed by incorporation with water (15 mL). Following treatment, pots were returned to the greenhouse for the duration of the experiment. The greenhouse was programmed for an approximate 15 h photoperiod which was maintained at about 23-29° C. during the day and 22-28° C. during the night. Nutrients and water were added on a regular basis through surface irrigation and supplemental lighting was provided with overhead metal halide 1000-Watt lamps as necessary. Herbicidal effect ratings were obtained 14 days after treatment. All evaluations were made relative to appropriate controls on a scale of 0 to 100 where 0 represents no herbicidal effect and 100 represents plant death or lack of emergence from the soil.

[2] = system: giant foxtail (Setaria faberi); experiment: Pre-emergent Test I herbicidal activity; settings: 4 Kg ai/ha
Procedure: as §1

[3] = system: ivyleaf morningglory (Ipomoea hederecea); experiment: Pre-emergent Test I herbicidal activity; settings: 4 Kg ai/ha
Procedure: as §1

[4] = system: sunflower (Helianthus annuus); experiment: Pre-emergent Test I herbicidal activity; settings: 4 Kg ai/ha
Procedure: as §1

wild oats (Avena fatua) = experiment: Pre-emergent Test I herbicidal activity; settings: 4 Kg ai/ha
Procedure: as §1

[5] = system: Key Broadleaf Weed and Crop Species; experiment: Post-emergent Test II herbicidal activity (Table 15); settings: post-emergence, 336 h, 14 d; for pest or weed control at 35 g/ha: 35 g ai/ha; for pest or weed control at 70 g/ha: 70 g ai/ha; for pest or weed control at 280 g/ha: 280 g ai/ha
Outline: (§2)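 Visual injury rating (0 = none, 100 = complete kill) taken 14 d after treatment, relative to untreated plants. Compounds in acetone/DMSO with crop oil concentrate and Triton X-155 were track-sprayed at 187 L/ha onto seedlings at the first-second true leaf stage.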

[6] = system: Key Grass and Sedge Weeds as well as Grass Crops; experiment: Post-emergent Test II herbicidal activity (Table 16); settings: post-emergence, 336 h, 14 d; for pest or weed control at 35 g/ha: 35 g ai/ha; for pest or weed control at 70 g/ha: 70 g ai/ha; for pest or weed control at 140 g/ha: 140 g ai/ha; for pest or weed control at 280 g/ha: 280 g ai/ha
Outline: as §2

[7] = Abutilon theophrasti, velvetleaf (Abutilon theophrasti), read-out: Visual Growth Reduction (%) 14 Days After Application, ABUTH
[8] = Amaranthus retroflexus, redroot pigweed (Amaranthus retroflexus), read-out: Visual Growth Reduction (%) 14 Days After Application, AMARE
[9] = Brassica napus, oilseed rape, canola (Brassica napus), read-out: Visual Growth Reduction (%) 14 Days After Application, BRSNN
[10] = Chenopodium album, lambsquarters (Chenopodium album), read-out: Visual Growth Reduction (%) 14 Days After Application, CHEAL
[11] = Euphorbia heterophylla, wild poinsettia (Euphorbia heterophylla), read-out: Visual Growth Reduction (%) 14 Days After Application, EPHHL
[12] = Helianthus annuus, sunflower (Helianthus annuus), read-out: Visual Growth Reduction (%) 14 Days After Application, HELAN
[13] = Cyperus esculentus, yellow nutsedge (Cyperus esculentus), read-out: Visual Growth Reduction (%) 14 Days After Application, CYPES
[14] = Echinochloa crus-galli, barnyardgrass (Echinochloa crus-galli), read-out: Visual Growth Reduction (%) 14 Days After Application, ECHCG
[15] = Oryza sativa, rice (Oryza sativa), read-out: Visual Growth Reduction (%) 14 Days After Application, ORYSA
[16] = Setaria faberi, giant foxtail (Setaria faberi), read-out: Visual Growth Reduction (%) 14 Days After Application, SETFA
[17] = Triticum aestivum, wheat, spring (Triticum aestivum), read-out: Visual Growth Reduction (%) 14 Days After Application, TRZAS
[18] = Zea mays, maize, corn (Zea mays), read-out: Visual Growth Reduction (%) 14 Days After Application, ZEAMX

## COC(=O)c1nc(-c2ccc3sccc3c2)cc(N)c1Cl [Compound 3.05]
[1]
  Visual Growth Reduction (%) 14 Days After Application, ECHCG: A (95-100)
[2]
  Visual Growth Reduction (%) 14 Days After Application, SETFA: A (95-100)
[3]
  Visual Growth Reduction (%) 14 Days After Application IPOHE: A (95-100)
[4]
  Visual Growth Reduction (%) 14 Days After Application HELAN: F (30-44)
Wild oats (Avena fatua)
  Visual Growth Reduction (%) 14 Days After Application AVEFA: F (30-44)
[5]; [7]
  pest or weed control at 35 g/ha: 85 to 94%
  pest or weed control at 70 g/ha: 85 to 94%
  pest or weed control at 280 g/ha: 95 to 100%
[5]; [8]
  pest or weed control at 35 g/ha: 30 to 44%
  pest or weed control at 70 g/ha: 45 to 59%
  pest or weed control at 280 g/ha: 85 to 94%
[5]; [9]
  pest or weed control at 35 g/ha: 0 to 29%
  pest or weed control at 70 g/ha: 0 to 29%
  pest or weed control at 280 g/ha: 0 to 29%
[5]; [10]
  pest or weed control at 35 g/ha: 75 to 84%
  pest or weed control at 70 g/ha: 85 to 94%
  pest or weed control at 280 g/ha: 85 to 94%
[5]; Chenopodium album, lambsquarters (Chenopodium album), 140 g ai/ha, read-out: Visual Growth Reduction (%) 14 Days After Application, CHEAL
  pest or weed control at 140 g/ha: 85 to 94%
[5]; [11]
  pest or weed control at 35 g/ha: 60 to 74%
  pest or weed control at 70 g/ha: 60 to 74%
  pest or weed control at 280 g/ha: 85 to 94%
[5]; [12]
  pest or weed control at 35 g/ha: 0 to 29%
  pest or weed control at 70 g/ha: 0 to 29%
  pest or weed control at 280 g/ha: 45 to 59%
[6]; [13]
  pest or weed control at 35 g/ha: 0 to 29%
  pest or weed control at 70 g/ha: 0 to 29%
  pest or weed control at 140 g/ha: 0 to 29%
  pest or weed control at 280 g/ha: 0 to 29%
[6]; [14]
  pest or weed control at 35 g/ha: 45 to 59%
  pest or weed control at 70 g/ha: 75 to 84%
  pest or weed control at 140 g/ha: 85 to 94%
  pest or weed control at 280 g/ha: 85 to 94%
[6]; [15]
  pest or weed control at 35 g/ha: 0 to 29%
  pest or weed control at 70 g/ha: 0 to 29%
  pest or weed control at 140 g/ha: 0 to 29%
  pest or weed control at 280 g/ha: 0 to 29%
[6]; [16]
  pest or weed control at 35 g/ha: 0 to 29%
  pest or weed control at 70 g/ha: 0 to 29%
  pest or weed control at 140 g/ha: 30 to 44%
  pest or weed control at 280 g/ha: 60 to 74%
[6]; [17]
  pest or weed control at 35 g/ha: 0 to 29%
  pest or weed control at 70 g/ha: 0 to 29%
  pest or weed control at 140 g/ha: 0 to 29%
  pest or weed control at 280 g/ha: 0 to 29%
[6]; [18]
  pest or weed control at 35 g/ha: 0 to 29%
  pest or weed control at 70 g/ha: 0 to 29%
  pest or weed control at 140 g/ha: 45 to 59%
  pest or weed control at 280 g/ha: 60 to 74%
